In US11413278B2, “Compounds and methods for promoting stress resistance” (priority 2015, dated 2022):
Where two headings read alike, the source gives them in different places.

Legend:
WI-38 cells [1] = test: MMS resistance assay; format: cell-based, human; conditions: for fold induction at 10 µM: Homo sapiens, 12 h, normalized ATP measurement
Summary of the method: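 Resistance to CdCl2 or MMS stress (12 h exposure) was scored in WI-38 fibroblasts pretreated with compound at 0.25–20 μM final, five doses, technical triplicates. MMS plates had compound added 24 h before MMS, after a shift to serum-free DMEM+2% BSA. Significance came from a global variance t-test over two independent runs.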

WI-38 cells [2] = conditions: for No H2O2 stress treatment, at 10 uM (fold change): normalized ATP measurement; for Assay 1: H2O2-resistant: YES/NO, if NO, possibly due to repeated freezing/thawing of stocks
human PARP1 = biological target: T1, human PARP1 (Homo sapiens, UniProt P09874); test: PARP inhibitor assay (HT Fluorescent Homogeneous PARP Inhibition Assay Kit); format: biochemical; conditions: score
T1 construct: purchased Trevigen
T1 sequence (P09874 whole entry): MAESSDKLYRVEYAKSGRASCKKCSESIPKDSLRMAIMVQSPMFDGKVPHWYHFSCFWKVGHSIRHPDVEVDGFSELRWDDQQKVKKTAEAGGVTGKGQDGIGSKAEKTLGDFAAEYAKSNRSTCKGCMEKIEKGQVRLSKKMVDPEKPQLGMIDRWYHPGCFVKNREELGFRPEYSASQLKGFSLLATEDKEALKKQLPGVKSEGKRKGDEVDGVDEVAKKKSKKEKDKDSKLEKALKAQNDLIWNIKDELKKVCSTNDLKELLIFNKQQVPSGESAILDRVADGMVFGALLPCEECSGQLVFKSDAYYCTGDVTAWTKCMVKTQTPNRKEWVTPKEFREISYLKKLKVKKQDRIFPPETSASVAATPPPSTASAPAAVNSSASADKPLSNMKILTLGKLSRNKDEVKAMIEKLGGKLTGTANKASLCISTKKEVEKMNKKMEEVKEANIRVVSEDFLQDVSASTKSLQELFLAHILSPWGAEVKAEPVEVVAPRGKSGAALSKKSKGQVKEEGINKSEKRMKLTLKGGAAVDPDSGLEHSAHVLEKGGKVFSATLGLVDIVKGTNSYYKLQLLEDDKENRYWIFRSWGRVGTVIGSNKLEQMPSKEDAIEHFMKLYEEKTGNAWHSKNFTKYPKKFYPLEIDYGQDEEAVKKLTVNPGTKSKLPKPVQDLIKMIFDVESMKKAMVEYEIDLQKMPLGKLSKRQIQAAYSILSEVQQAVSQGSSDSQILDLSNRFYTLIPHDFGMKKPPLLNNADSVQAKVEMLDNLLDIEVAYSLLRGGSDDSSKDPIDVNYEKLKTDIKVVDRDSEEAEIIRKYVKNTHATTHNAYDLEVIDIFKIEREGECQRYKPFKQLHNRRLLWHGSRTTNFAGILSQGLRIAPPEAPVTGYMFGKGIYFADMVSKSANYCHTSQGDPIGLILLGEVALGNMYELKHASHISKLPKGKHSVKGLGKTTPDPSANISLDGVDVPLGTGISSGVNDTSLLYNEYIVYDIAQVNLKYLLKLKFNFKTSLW
Summary of the method: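 Compounds (10 μM final) incubated 30 min, room temperature, dark, with human PARP1, nicotinamide adenine dinucleotide and activated DNA. Fluorescent signal generated by 1 hr cycling with diaphorase and resazurin, then reaction stopped.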

C. elegans = C. elegans lifespan assays (liquid and plate); format: in vivo, Caenorhabditis elegans; conditions: for ILS at 60 µM / ILS at 66 µM: Caenorhabditis elegans; for O = Life span- extending scores in worms: score scale 0 to 2, 4 to 6 independent trials; for M = Lifespan-extending scores in worms: summary score
[3] = tested on: PC12 cells expressing poly(Q)103-Htt-EGFP; test: Poly(Q) toxicity & viability analysis (cellular model of Huntington's disease); format: cell-based, rat; conditions: for M = Huntington's poly-Q toxicity attenuation: score; for K = Huntington's poly-Q toxicity attenuation: summary score
Summary of the method: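 Readout is CellTiter-Glo ATP content measured after 48 hrs. Cells are a PC12 line stably expressing inducible poly(Q)103-Htt-EGFP, where induction produces toxic aggregates.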

[4] = tested on: phosphorylated γH2A.X and TP53BP1; test: DNA damage marker analysis (immuno-staining); conditions: for activity at 10 µM: Homo sapiens, WI-38, 24 h; for P = Potential DNA-damaging / R = Potential DNA damaging: human, 24 h
Summary of the method: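 Immunofluorescence read-out for phospho-γH2A.X (Ser-139) and phospho-TP53BP1 (Ser-1778), with DAPI nuclear stain and automated imaging at 10×. WI-38 cells (~8,000 per well) were exposed to small molecules for 24 h after 24 h of culture, with doxorubicin (300 nM, 24 h) or H2O2 (700 μM, 3 h) as positive damage controls.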

[5] = Exp. 1, WI-38 cells, read-out: Exp. 1, under MMS stress treatment, at 10 uM (fold change)
[6] = Exp. 2, WI-38 cells, read-out: Exp. 2, under MMS stress treatment, at 10 uM (fold change)
[7] = score in summary of 38 core set hits
[8] = WI-38 cells, 10 μM, (*) = compromised ability to protect cells from H2O2, could be due to stability issue
[9] = asterisks indicate the loss of the ability to protect cells from H2O2 over time
[10] = derived from dose response curves, 0.6-20 uM, H2O2-resistance of WI-38 cells
[11] = read-out: Est. ED50, dose response 0.6-20 μM, H2O2-resistance
[12] = in liquid, wild type, with FuDR, 1.0 × 10^9 bacteria/ml, read-out: relative change of mean lifespan vs control, Trial 1
[13] = in liquid, wild type, with FuDR, 2.5 × 10^9 bacteria/ml, read-out: relative change of mean lifespan vs control, Trial 2
[14] = on plate, CF512 temperature-sensitive sterile animals, without FuDR, 2.0 × 10^10 bacteria/ml, read-out: relative change of mean lifespan vs control, Trial 3
[15] = Assay 2(z), 1.0 × 10^9 bacteria/ml, wild type + FuDR (2012 July), read-out: Lifespan assay in liquid
[16] = Assay 3(aa), 2.5 × 10^9 bacteria/ml, wild type + FuDR, read-out: Lifespan assay in liquid
[17] = Assay 4(ab), 2.0 × 10^10 bacteria/ml, CF512 worms, no FuDR, read-out: Lifespan assay on plates
[18] = read-out: Experiment 1, H2A.X-P DNA damage foci staining (no H2O2 stress treatment), at 10 uM
[19] = read-out: Experiment 2, H2A.X-P DNA damage foci staining (no H2O2 stress treatment), at 10 uM
[20] = read-out: Experiment 2, H2A.X-P DNA damage foci staining (under H2O2 stress treatment), at 10 uM
[21] = read-out: Experiment 2, TP53BP1-P DNA damage foci staining (no H2O2 stress treatment), at 10 uM
[22] = read-out: Experiment 2, TP53BP1-P DNA damage foci staining (under H2O2 stress treatment), at 10 uM

SMILES | fold induction at 10 µM (WI-38 cells [1]; [5]) | fold induction at 10 µM (WI-38 cells [1]; [6]) | B = MMS resistant (WI-38 cells [1]; [7]) | B = MMS resistant (WI-38 cells [1]; summary score) | D = Triple resistant (WI-38 cells [1]; summary score) | H2O2-resistant (WI-38 cells [2]; [8]) | No H2O2 stress treatment, at 10 uM (fold change) (WI-38 cells [2]; WI-38 cells) | Assay 1: H2O2-resistant (WI-38 cells [2]) | H2O2-resistant (WI-38 cells [2]; [9]) | EC50 (WI-38 cells [2]; [10]) | EC50 (WI-38 cells [2]; [11]) | L = PARP inhibition (human PARP1) | ILS at 60 µM (C. elegans; [12]) | ILS at 60 µM (C. elegans; [13]) | ILS at 60 µM (C. elegans; [14]) | ILS at 66 µM (C. elegans; [15]) | ILS at 66 µM (C. elegans; [16]) | ILS at 66 µM (C. elegans; [17]) | O = Life span- extending scores in worms (C. elegans) | M = Lifespan-extending scores in worms (C. elegans) | also measured
COc1cccc(/C=C2\CN(C)C/C(=C\c3cccc(OC)c3OC)C2=O)c1OC [O23] | 1.04 | 1.28 | 0 | 0 | 0 | YES (*) | 0.76 fold change | YES | YES (*) | 4.9 µM | 4.9 µM | 0 | 36.2% | 17.4% | 21.6% | 36.2% | 17.4% | 21.6% | 2 (2 for observed in more than 2 trials) | 2 (2 for observed in more than 2 trials) | ILS at 60 µM (C. elegans; on plate, CF512 temperature-sensitive sterile animals, without FuDR, 1.0 × 10^11 bacteria/ml, read-out: relative change of mean lifespan vs control, Trial 4): -0.3%; ILS at 66 µM (C. elegans; Assay 5(ac), 1.0 × 10^11 bacteria/ml, CF512 worms, no FuDR, read-out: Lifespan assay on plates): -0.3%; Extension of C. elegans' lifespan (qualitative) (C. elegans; in at least 3 to 4 trials, group range ~10% to ~50%): could extend animal's lifespan; Trials with lifespan extension (C. elegans; positive of total trials): 3 of 4; M = Huntington's poly-Q toxicity attenuation [3]: 0; K = Huntington's poly-Q toxicity attenuation [3]: 0; activity at 10 µM [4, 18]: 79.9%; activity at 10 µM [4, 19]: 326%; activity at 10 µM [4, 20]: 33.4%; activity at 10 µM [4, 21]: 42.4%; activity at 10 µM [4, 22]: 13.2%; P = Potential DNA-damaging [4]: 0; R = Potential DNA damaging [4]: 0
O=C(Nc1nc(C23CC4CC(CC(C4)C2)C3)cs1)C(c1ccccc1)c1ccccc1 [O10] | 1.08 | 4.08 | 0 | 0 | 0 | YES | 1.08 fold change | YES | YES | 9.5 µM | 9.5 µM | 0 | 5.9% | -6.2% | 9.5% | 5.9% | -6.2% | 9.5% | 0 | 0 | M = Huntington's poly-Q toxicity attenuation [3]: 0; K = Huntington's poly-Q toxicity attenuation [3]: 0; activity at 10 µM [4, 18]: 102%; activity at 10 µM [4, 19]: 71.5%; activity at 10 µM [4, 20]: 153%; activity at 10 µM [4, 21]: 135%; activity at 10 µM [4, 22]: 498%; P = Potential DNA-damaging [4]: 0; R = Potential DNA damaging [4]: 0
Cc1cc(C)c(C(=O)/C=C/c2ccccc2F)c(O)n1 [O18] | 1.11 | 1.48 | 0 | 1 | 2 | YES | 0.99 fold change | YES | YES | 9.8 µM | 9.8 µM | 0 | 22.1% | 11.8% | 3.8% | 22.1% | 11.8% | 3.8% | 1 (1 for lifespan extension observed in 2 trials) | 1 (1 for lifespan extension observed in 2 trials) | Assay 3: MMS-resistant (WI-38 cells [1]; YES/NO, * indicates partial): YES; Assay 5: Triple resistant (WI-38 cells [1]; YES/NO, H2O2, cadmium and MMS): YES; M = Huntington's poly-Q toxicity attenuation [3]: 0; K = Huntington's poly-Q toxicity attenuation [3]: 0; activity at 10 µM [4, 18]: 364%; activity at 10 µM [4, 19]: 143%; activity at 10 µM [4, 20]: 137%; activity at 10 µM [4, 21]: 183%; activity at 10 µM [4, 22]: 450%; P = Potential DNA-damaging [4]: 0; R = Potential DNA damaging [4]: 0
